Broadly, the IC50 is the concentration that gives 50% inhibition.

The text below walks through data of publication PMC12947280, “An Antifungal with a Novel Mechanism of Action Discovered via Resistance Gene-Guided Genome Mining” (ACS Central Science, 2026).

One data set deals with T1, S. cerevisiae ALS (Saccharomyces cerevisiae, UniProt P07342).
T1 construct: made in house; host or cells: E. coli BL21 (DE3), pET28a-ScILV2
The data set is described as follows: Kinetic characterization: IC50 vs concentration of active ALS. It counts as biochemical. The note with it: IC50 equal to half the concentration of active ALS.

In the next data set the test system is AfALS. The experiment in a line: Intact protein mass spectrometry. It counts as binding, Aspergillus fumigatus. The note with it: 10 μM, 30 min. An excerpt: We next characterized the structural basis for binding of 1 to ALS. Given the strained structure and the observed tight binding kinetics, we hypothesized that 1 may be binding covalently. Analysis of ALS from both AfALS and ScALS by intact protein mass spectrometry yielded traces with multiple proteoforms for both proteins. […] Limited proteolysis followed by peptide mapping localized the covalent attachment to the 239[…]258 peptide of ScALS with Lys251 and Asp252 (equivalent to Lys310 and Asp311 in AfALS) serving as the most likely attachment sites (Figure S7).

The nature of the next data set: Plasma stability, human. The class given is in vitro ADME. To be noted: read-out: Plasma t1/2 Human.
In data set [1] the target is T2, S. cerevisiae ALS wild type (Saccharomyces cerevisiae, UniProt P07342).
T2 construct: made in house; host or cells: E. coli BL21 (DE3), pET28a-ScILV2
The experiment in a line: ALS biochemical assay (ScALS), wild type. How it is done:
ALS biochemical assay (ScALS)
Saccharomyces cerevisiae acetohydroxyacid synthase (ScALS) lacking the N-terminal […]
Escherichia coli as an N-terminally His6-tagged protein. Assays (50 µL final volume) contained […]
adenine dinucleotide, 10 mM MgCl2, 1 mM DTT, 1% DMSO (± inhibitor) in 500 mM K2HPO4 buffer at pH 7.5. Following a 30 min pre-incubation of the enzyme and inhibitor in the reaction mixture at room temperature, reactions were initiated with the addition of pyruvate. ScALS assays were carried out at 30 °C for 60 min. The reaction was quenched with the addition of 5 µL of 10% H2SO4 (v/v in deionized water). Reactions were incubated at 60 °C at 800 rpm in an […]
to acetoin. Subsequently, the concentration of acetoin was determined by the addition of 7.5 µL 6 M NaOH, 25 µL 0.5% creatine (w/v in deionized water), and 25 µL 4% 1-naphthol (w/v in 2.5 M NaOH). This mixture was incubated at 60 °C at 800 rpm in an incubating microplate shaker for […]
40 µL of this reaction mixture was transferred to a half area UV-star 96-well plate (Grenier) and the absorbance at 525 nm was measured on a Spark multimode plate reader (Tecan). The percent inhibition was calculated by the comparison of the signal to DMSO (0% […]
IC50 values were calculated from the dose response curves using Prism 9 (four parameter, variable slope). […]
Expression and purification of ScALS
S. cerevisiae ILV2 (the gene or ScALS) lacking the N-terminal mitochondrial-localization tag

The nature of data set [2]: Liver microsome stability, mouse. It counts as in vitro ADME. To be noted: mouse liver microsomes; read-out: Liver microsome t1/2 Mouse.
Details of data set [3]: method as in PMID 41148120. The note with it: another study; cited from earlier work.

T2 sequence (P07342 58-687): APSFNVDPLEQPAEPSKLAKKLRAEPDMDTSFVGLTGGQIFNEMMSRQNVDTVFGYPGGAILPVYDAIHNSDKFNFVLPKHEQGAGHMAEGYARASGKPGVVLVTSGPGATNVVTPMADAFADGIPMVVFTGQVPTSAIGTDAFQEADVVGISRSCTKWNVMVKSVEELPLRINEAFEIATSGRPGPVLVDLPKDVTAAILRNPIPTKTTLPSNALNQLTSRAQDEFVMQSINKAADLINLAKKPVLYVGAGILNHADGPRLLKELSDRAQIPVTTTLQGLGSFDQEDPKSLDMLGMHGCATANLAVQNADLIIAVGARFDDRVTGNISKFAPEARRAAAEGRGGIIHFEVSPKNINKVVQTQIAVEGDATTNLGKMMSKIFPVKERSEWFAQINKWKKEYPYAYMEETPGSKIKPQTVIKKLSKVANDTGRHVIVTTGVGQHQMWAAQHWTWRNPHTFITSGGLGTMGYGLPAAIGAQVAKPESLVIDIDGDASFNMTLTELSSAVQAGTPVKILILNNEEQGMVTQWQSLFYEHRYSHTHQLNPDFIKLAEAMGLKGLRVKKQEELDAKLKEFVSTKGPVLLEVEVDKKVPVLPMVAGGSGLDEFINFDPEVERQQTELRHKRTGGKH
T1 sequence (P07342 58-687): as above

With `CCCC1C(C)=CC2CC=CC3(C)C2C1C(=O)C31C(=O)NC(CCCO)C1=O` (stereo not shown) [compound 1], the “binding kinetics (IC50 vs concentration of active ALS)” value at S. cerevisiae ALS is listed as “tight-binding kinetics”. Besides, the “covalent modification of AfALS (intact mass shift)” value in the data set on AfALS is on record as “mass shifts consistent with covalent addition”. The half-life was 79 min in the data set “Plasma stability, human” and 3 min in data set [2]. The “potency against ScALS compared with diastereomer 13” value in data set [1] (Figure S6) is reported as “significantly more potent”. Moreover, the IC50 in data set [1] (recombinant ScALS, read-out: S. cerevisiae ALS IC50 Wild type) was determined as 15 ± 1 nM. Also, the herbicidal activity entry in data set [3] is listed as “modest herbicidal activity”.
